Assay results as given in ChEMBL document CHEMBL4007416, “Thieno[3,2-b]pyrrole-5-carboxamides as New Reversible Inhibitors of Histone Lysine Demethylase KDM1A/LSD1. Part 2: Structure-Based Drug Design and Structure-Activity Relationship” (J Med Chem, 2017).
Active and inactive are the calls of the source. The rule behind the calls is not given here.

Legend:
[1] = molecular target: LSD1/CoREST complex (Homo sapiens, UniProt O60341); assay: Inhibition of recombinant human KDM1A/CoREST complex expressed in Escherichia coli using [Lys(Me1)4]-Histone H3 (1 to 21 residues)-GGK(biotin) as substrate incubated for 20 mins measured after 1 hr by TR-FRET assay
[2] = molecular target: T1, Amine oxidase [flavin-containing] A (Homo sapiens, UniProt P21397); assay: Inhibition of recombinant human MAOA incubated for 15 mins measured after 30 mins by luminescence-Glo assay
T1 sequence (P21397 whole entry): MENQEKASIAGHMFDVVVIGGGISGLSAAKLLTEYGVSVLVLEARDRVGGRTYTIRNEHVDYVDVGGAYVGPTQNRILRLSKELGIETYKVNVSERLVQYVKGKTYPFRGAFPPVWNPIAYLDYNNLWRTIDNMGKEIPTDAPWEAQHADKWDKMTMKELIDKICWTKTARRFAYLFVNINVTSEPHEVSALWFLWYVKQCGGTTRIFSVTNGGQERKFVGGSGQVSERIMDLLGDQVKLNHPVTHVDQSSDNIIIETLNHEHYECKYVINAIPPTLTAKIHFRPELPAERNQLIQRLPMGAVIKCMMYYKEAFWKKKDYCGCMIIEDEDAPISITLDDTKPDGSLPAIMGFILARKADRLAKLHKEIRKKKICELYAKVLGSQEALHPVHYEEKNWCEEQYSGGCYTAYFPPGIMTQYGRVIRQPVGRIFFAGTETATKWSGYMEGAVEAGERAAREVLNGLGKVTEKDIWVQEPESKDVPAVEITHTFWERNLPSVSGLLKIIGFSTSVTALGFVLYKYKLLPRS

[3] = molecular target: T2, Amine oxidase [flavin-containing] B (Homo sapiens, UniProt P27338); assay: Inhibition of recombinant human MAOB incubated for 15 mins measured after 30 mins by luminescence-Glo assay
T2 sequence (P27338 whole entry): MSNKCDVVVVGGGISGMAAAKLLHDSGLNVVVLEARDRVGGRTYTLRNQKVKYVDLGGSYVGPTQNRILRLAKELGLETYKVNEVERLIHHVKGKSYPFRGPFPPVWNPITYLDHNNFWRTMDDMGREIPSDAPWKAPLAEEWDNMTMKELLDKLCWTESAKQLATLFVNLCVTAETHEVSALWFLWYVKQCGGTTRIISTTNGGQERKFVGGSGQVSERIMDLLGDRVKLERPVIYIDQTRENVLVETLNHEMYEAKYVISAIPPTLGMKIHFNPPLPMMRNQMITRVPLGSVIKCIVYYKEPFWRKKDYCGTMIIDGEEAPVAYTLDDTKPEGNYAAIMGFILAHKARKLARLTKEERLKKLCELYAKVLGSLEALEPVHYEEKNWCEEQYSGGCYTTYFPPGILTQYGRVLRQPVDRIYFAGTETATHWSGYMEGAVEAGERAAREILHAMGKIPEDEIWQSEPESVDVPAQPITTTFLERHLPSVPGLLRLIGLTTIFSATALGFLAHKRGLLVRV

[4] = molecular target: Lysine-specific histone demethylase 1A (Homo sapiens) (UniProt O60341); assay: Inhibition of KDM1A in human THP1 cells assessed as increase in CD86 expression level at 0.5 uM after 48 hrs by flow cytometric analysis; type: cell-based
[5] = molecular target: Lysine-specific histone demethylase 1A (Homo sapiens) (UniProt O60341); assay: Inhibition of KDM1A in human THP1 cells assessed as increase in CD11b expression level at 0.5 uM after 48 hrs by flow cytometric analysis; type: cell-based
[6] = tested on: MV4-11; assay: Antiproliferative activity against human MV4-11 cells
[7] = tested on: NB-4; assay: Antiproliferative activity against human NB4 cells
[8] = tested on: THP-1; assay: Antiproliferative activity against human THP1 cells
[9] = tested on: THP-1; assay: Induction of apoptosis in human THP1 cells at 1 uM after 72 hrs by Annexin V-propidium iodide double staining based flow cytometry; type: functional, cell-based
[10] = tested on: THP-1; assay: Cell cycle arrest in human THP1 cells at 1 uM after 72 hrs by propidium iodide staining based flow cytometry; type: functional
[11] = tested on: THP-1; assay: Anticlonogenic activity against human THP1 cells assessed as inhibition of methylcellulose colony formation at 1 uM after 13 days relative to control; type: functional; conditions: THP-1, 312 h
[12] = tested on: CN1CCC(Oc2ccc(OCc3ccccc3NC(=O)c3cc4sccc4n3C)cc2)CC1; assay: Inhibition of recombinant human KDM1A/CoREST complex expressed in Escherichia coli assessed as Vmax for substrate using H3K4me peptide as substrate preincubated for 15 mins followed by substrate addition measured for 12 mins by Lineweaver-Burk plot analysis
[13] = tested on: CN1CCC(Oc2ccc(OCc3ccccc3NC(=O)c3cc4sccc4n3C)cc2)CC1; assay: Inhibition of recombinant human KDM1A/CoREST complex expressed in Escherichia coli assessed as Km for substrate using H3K4me peptide as substrate preincubated for 15 mins followed by substrate addition measured for 12 mins by Lineweaver-Burk plot analysis

Compound	IC50 [1]	other results
Cn1c(C(=O)Nc2ccccc2OCc2ccncc2)cc2sccc21	> 100000 nM	–
COCc1ccc(NC(=O)c2cc3sccc3n2C)cc1	> 100000 nM	–
Cn1c(C(=O)Nc2ccccc2COc2ccc(OC3CCN(Cc4ccccc4)CC3)cc2)cc2sccc21	> 100000 nM	–
Cn1c(C(=O)Nc2ccccc2COc2ccc(CNC(=N)N)cc2)cc2sccc21	3200 nM	–
Cn1c(C(=O)Nc2ccc(OCc3ccncc3)cc2)cc2sccc21	> 100000 nM	–
Cn1c(C(=O)Nc2cccc(OCc3ccncc3)c2)cc2sccc21	5800 nM	–
LSD1/CoREST complex (Homo sapiens) (from UniProt O60341+Q9UKL0)	–	Vmax [12]: 226 µmol/min; Km [13]: 1.5 µM
COc1ccccc1NC(=O)c1cc2sccc2n1C	> 100000 nM	–
Cn1c(C(=O)Nc2ccc(COc3ccncc3)cc2)cc2sccc21	46400 nM	–
Cn1c(C(=O)Nc2ccccc2COc2ccncc2)cc2sccc21	> 100000 nM	–
Cn1c(C(=O)Nc2ccccc2COc2ccc(OC3C[C@H]4CC[C@@H](C3)N4)cc2)cc2sccc21 (some centres undefined)	124 nM	–

The next lines start with results.

IC50 [1]	Compound	other results
804 nM	Cn1c(C(=O)Nc2ccccc2COc2ccc(OC3CCNC3)cc2)cc2sccc21 (centres undefined)	–
2900 nM	CN1CCN(Cc2ccc(OCc3ccccc3NC(=O)c3cc4sccc4n3C)cc2)CC1	–
1300 nM	CNCCCOc1ccc(OCc2ccccc2NC(=O)c2cc3sccc3n2C)cc1	–
6.7 nM	CCn1c(C(=O)Nc2cccc(COC)c2COc2ccc(OC[C@@H]3CCNC3)cc2)cc2sccc21	IC50 [2]: 47200 nM; IC50 [3]: > 100000 nM; inhibition [4]: Active; inhibition [5]: Active; IC50 [6]: 4100 nM; IC50 [7]: 2900 nM; IC50 [8]: 1200 nM; Activity [9]: inactive; Activity [10]: inactive; inhibition at 1 µM [11]: 63.5%
2500 nM	CN1CCC(Oc2ccc(OCc3ccc(NC(=O)c4cc5sccc5n4C)cc3)cc2)CC1	–
74.6 to 75 nM	COCc1cccc(NC(=O)c2cc3sccc3n2C)c1COc1ccc(OC2CCNCC2)cc1	–
65 nM	Cn1c(C(=O)Nc2cccc(CN3CCOCC3)c2COc2ccc(OC3CCNCC3)cc2)cc2sccc21	–
1500 nM	Cn1c(C(=O)Nc2ccccc2COc2ccc(N3CCNCC3)cc2)cc2sccc21	–
1700 nM	Cn1c(C(=O)Nc2ccccc2OCC2CCN(CC3CCNCC3)CC2)cc2sccc21	–
149 nM	Cn1c(C(=O)Nc2ccccc2COc2ccc(OCC3CCNCC3)cc2)cc2sccc21	–
29.2 nM	COCc1cccc(NC(=O)c2cc3sccc3n2C)c1COc1ccc(OC2CCCNCC2)cc1 (centres undefined)	–
66 nM	CC(C)OCc1cccc(NC(=O)c2cc3sccc3n2C)c1COc1ccc(OC2CCNCC2)cc1	–
